In patent US10125134B2 (Mirati Therapeutics, Inc., priority 2016, dated 2018):
Like-named read-outs stand apart in the source and are kept apart here.

Legend:
KRas G12C = KRas G12C (Homo sapiens, UniProt P01116, C118S/C51S/C80L/G12C); experiment: KRas G12C Modification Assay (LCMS detection of covalent adduct); format: binding; conditions: normalized percent of control; tested at 5 μM concentration for 3 hours
Summary of the method: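 Covalent modification was read by reverse-phase LC/MS of intact protein after compound exposure, each reaction stopped at its time point with 25 mM acetic acid. Unmodified-protein signal, taken as percent of total, was normalised to untreated protein and reported as POC.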

[1] = system: NCI-H358 cells (express KRas G12C), Phospho-ERK; experiment: Cellular inhibition of KRas G12C: Phospho-ERK in NCI-H358 cells; format: cell-based; conditions: pERK(Thr202/Tyr204) normalized with GAPDH, NCI-H358 cells, 3 hours, read-out: IC50
Summary of the method: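 IC50 derived by 4-parameter fit of GAPDH-normalized pERK(Thr202/Tyr204) signal, as percent of DMSO control. Signal came from in-cell immunodetection with infrared secondaries after 3 h compound exposure of KRas G12C NCI-H358 cells at 0.5% DMSO.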

Row | SMILES | POC (KRas G12C) | IC50 [1] [µM] | IC50 ([1]; Homo sapiens) [µM] | IC50 ([1]; Homo sapiens, NCI-H358, 3 h) [µM]
1 | C=CC(=O)N1CCN(c2nc(OC[C@@H]3CCCN3C)nc3c2CCN(c2c(C)c(C)cc4[nH]ncc24)C3)C[C@@H]1CC#N [Example 459, 2-[(2S)-4-[7-(5,6-dimethyl-1H-indazol-4-yl)-2-[[(25)-1-methylpyrrolidin-2-yl]methoxy]-6,8-dihydro-5H-pyrido[3,4-d]pyrimidin-4-yl]-1-prop-2-enoyl-piperazin-2-yl]acetonitrile] | C (“C”>50% POC) | 0.0001 to 1 | – | –
2 | Cc1cccc2cccc(N3CCc4c(nc(OCCC(=O)N(C)C)nc4N4CCN(C(=O)/C=C/CN(C)C)[C@@H](CC#N)C4)C3)c12 [Example 460, (S,E)-3-((4-(3-(cyanomethyl)-4-(4-(dimethylamino)but-2-enoyl)piperazin-1-yl)-7-(8-methylnaphthalen-1-yl)-5,6,7,8-tetrahydropyrido[3,4-d]pyrimidin-2-yl)oxy)-N,N-dimethylpropanamide] | C (“C”>50% POC) | – | 0.0001 to 1 | –
3 | C=CC(=O)N1CCN(c2nc(OC[C@@H]3CCCN3C)nc3c2CCN(c2cccc4cccc(Br)c24)C3)C[C@@H]1CC#N [Example 461, 2-((S)-1-acryloyl-4-(7-(8-bromonaphthalen-1-yl)-2-(((S)-1-methylpyrrolidin-2-yl)methoxy)-5,6,7,8-tetrahydropyrido[3,4-d]pyrimidin-4-yl)piperazin-2-yl)acetonitrile] | C (“C”>50% POC) | – | – | 0.0001 to 1
4 | C=CC(=O)N1CCN(c2nc(OC[C@@H]3CCCN3C)nc3c2CCN(c2cccc4ccccc24)C3)[C@@H](C#N)C1 [Example 462, (R)-4-acryloyl-1-(2-(((S)-1-methylpyrrolidin-2-yl)methoxy)-7-(naphthalen-1-yl)-5,6,7,8-tetrahydropyrido[3,4-d]pyrimidin-4-yl)piperazine-2-carbonitrile] | C (“C”>50% POC) | – | – | > 1
